Laboratory results from patent US20090239884A1, “Methods of Treating Inflammation” (priority 2006, published 2009).
“Also recorded” adds a separate entry of the source. Like-named read-outs stand apart in the source and are kept apart here.

What was measured:
PDE1 = conditions: read-out: Potency (IC50) PDE1; cited from earlier work
[1] = test system: unstimulated mouse splenocytes; experiment: transwell chemotaxis assay in response to CXCL12, unstimulated splenocytes; format: cell-based
Experimental: (§1) Isolation of murine splenocytes. Splenocytes were isolated from 6-8 week old C57BL/6 mice obtained from Jackson Laboratories (Bar Harbor, Me.). Spleens were removed and a single-cell suspension prepared using 40 μm cell strainers (Fisher Scientific). Cells were washed with RPMI 1640 medium supplemented with 5% fetal bovine serum, 2 mM L-glutamine, 100 U/ml penicillin and […] (all from GIBCO). Red blood cells were lysed using standard lysis buffer (0.15M NH4Cl, 10mM KHCO3, 0.1 mM EDTA PH 7.4). Cells were then washed and used in chemotaxis assays either as unstimulated cells or after stimulation with Con A ([…]) as indicated.
(§2) Preparation of Test Reagents. […] This concentration of DMSO had no effect on migration of splenocytes in the presence or absence of CXCL12. CXCL12 was prepared as a 100 μg/ml stock solution in PBS+0.1% BSA, Con A was prepared as a stock of 2.5 mg/ml in PBS, and dibutyryl cAMP and Rp-cAMPS were prepared as 50 mM stock solutions in water, and these reagents were diluted directly into the chemotaxis assays.
(§3) Chemotaxis Assay. Chemotaxis assays were done in 24-well transwell plates with a pore size of 5 μm (Costar, Corning). Splenocytes were placed in medium at a concentration of 3×10^6 cells/ml. Where test agents were used, splenocytes were pretreated with the agent or vehicle for 45 to 60 min, following which 100 μl of the splenocyte suspension was placed into the upper chamber of transwell plates, and the lower chamber was filled with 600 μl of medium. When added to induce migration, CXCL12 (250 ng/ml) was added to the lower chamber only. Other test reagents were added as indicated to both the upper and lower chambers. After 4 hours of incubation at 37° C. in 5% CO2, transwell inserts were gently removed and the number of cells that migrated into the lower chamber were counted by withdrawing 500 μl of lower chamber medium, mixing it with 10 ml of buffer and counting the cells on a Coulter Counter (Beckman Coulter Z series). Where results are expressed as % of CXCL12-stimulated migration, this was calculated as follows: (cells migrated in presence of CXCL12 and test reagent—cells migrated in medium alone)/(cells migrated in presence of CXCL12-cells migrated in medium alone)×100. Experimental points for all chemotaxis assays were performed in triplicate.
(§4) Splenocytes isolated from mice were assayed for migration in response to CXCL12 (250 ng/ml), either directly (unstimulated) or following 48 hr of incubation with 3 μg/ml Con A (stimulated), as described in Methods. To test for effects of dibutyryl cAMP, cells were pretreated with dibutyryl cAMP (500 μM) for 45-60 min prior to beginning the chemotaxis assay, and the assays were conducted with dibutyryl cAMP (db-cAMP) present (500 μM) in both the upper and lower chambers of the transwell plates. Data plotted are derived from a single experiment performed in triplicate. *p<0.001; **p<0.02.

bEnd.3 endothelial cells = experiment: qRT-PCR gene expression in TNF-α activated bEnd.3 endothelial cells; format: cell-based, mouse; conditions: 45 minutes, DP 100 μM, dibutryl cAMP 500 μM
Experimental: Quantitative real-time RT-PCR analysis. 10 ng cDNA, or 2 μl cDNA for LCM studies, was amplified by qRT-PCR in a 25 μl reaction using SYBR Green PCR Master Mix (Applied Biosystems, Foster City, Calif.). Primers were designed using Primer Express software v3.0 and primer efficiency verified by slope analysis to be 100%±2.5%. qRT-PCR was performed using an ABI 7500 fast system and data analyzed using the Δ^ct method (SDS software v3.0). Amplicon sizes were approximately 100 bp.
(§5) Cell treatment. Confluent bEnd.3 monolayers were incubated with 200 ng/ml TNF-α (Peprotech, Rocky Hill, N.J.) at 37° c. for 2 hours. […] Christoff Zitt and Armin Hatzelmann (Altana Pharma, Konstanz, Germany). Con A-activated splenocytes or CD4^+CD25^− T cells activated with plate-bound anti-CD3 mAb were treated with the same reagents for 20, 45, or 90 minutes.
In FIG. 23A, bEnd.3 endothelial cells were activated for 2 hours with TNF-α (200 ng/ml) and (A) DP (100 μM) or vehicle (0.1% DMSO) for the final 45 minutes. PDE gene expression was then analyzed by qRT-PCR and the data presented as the mean+SEM of 3 independent experiments assayed in triplicate (*p<0.05, **p<0.001; unpaired t-test).
The data are shown as a mean±SEM percentage of vehicle control and represent 3 independent experiments assayed in triplicate (*p<0.05, * *p<0.001; unpaired t-test).

[2] = test system: Con A-stimulated mouse splenocytes; experiment: transwell chemotaxis assay in response to CXCL12, Con A-stimulated splenocytes; format: cell-based; conditions: for effect on CXCL12-induced migration: forskolin 25 μM, motapizone 10 μM, piclamilast 1 μM
Experimental: as §1, §2, §3, §4

[3] = test system: Con A-activated splenocytes on TNF-α activated bEnd.3 endothelial cells; experiment: T cell-endothelial cell adhesion assay (Example 13); format: cell-based, mouse; conditions: for ability to reduce adhesion of activated T cells to endothelial cells: IBMX 300 μM, piclamilast 1 μM, motapizone 1 μM; for reversal of the inhibitory effect of DP on T cell adhesion: DP 100 μM with adenosine deaminase 1 U/ml or CXCL12 250 ng/ml
Experimental: as §5
Adhesion assays. Adhesion assays were performed in 24-well plates with a confluent layer of bEnd.3 cells. Splenocytes or CD4^+CD25^− T cells were labeled with 5 μM Calcein AM (Molecular Probes, Eugene, Oreg.) and treated as described above. 7×10^5 pretreated splenocytes or CD4^+CD25^− T cells per well were incubated on bEnd.3 cells in RPMI media. After 30 minutes at 37° C., non-adherent cells were removed by washing with D-PBS. For analysis, 7×10^5 Calcein AM labeled splenocytes or CD4^+CD25^− T cells were used as positive controls. Fluorescence was read in a Victor 3v microplate reader (Perkin Elmer, Waltham, Mass.) with a fluorescein filter set. The percentage of adherent T cells, i.e. labeled cells resistant to detachment, was calculated as total fluorescence of well divided by fluorescence of 7×10^5 Calcein AM labeled cells multiplied by 100.
In FIGS. 20A-20B, splenocytes from C57BL/6 mice were activated with Con A (3 μg/ml) for 48 hours followed by a 45 minute incubation with (A) IBMX (300 μM), piclamilast (Picl, 1 μM) or DP (100 μM), (B) dibutryl cAMP (Db-cAMP, 500 μM) or DP in the presence or absence of adenosine deaminase (AD, 1 U/ml) or vehicle (0.1% DMSO). bEnd.3 endothelial cells were activated for 2 hours with TNF-α (200 ng/ml) and incubated with the same reagents for the final 45 minutes before splenocytes were added to the bEnd.3 cells for the adhesion assay. The data are presented as the mean±SEM percentage of splenocytes which were resistant to detachment. Results are representative of at least three independent experiments run in triplicate (*p<0.05, **p<0.001; one way ANOVA followed by Bonferroni t-test).

PDE4 [4] = experiment: PDE4 inhibition; format: biochemical
[5] = test system: Con A activated splenocytes on bEND.3 brain derived endothelial cell monolayers; experiment: adhesion of Con A activated splenocytes to bEND.3 monolayer (Example 4); format: cell-based, mouse; conditions: piclamilast 1 μM; static assay
Experimental: The hypothesis was first tested using a series of experiments determining T cell adhesion to vascular endothelial cells. Confluent bEND.3 brain derived endothelial cell monolayers were pretreated with 100 ng/ml TNF-α. […] Splenocytes were allowed to adhere for 30 min at 37° C. without shaking after which nonadherent cells were removed by washing the wells 4× with prewarmed D-PBS. For analysis, 7×10^5 calcein AM labeled cells were added to an empty well as a representation of maximal possible fluorescence. The fluorescence of each well was read by a Victor 3v microplate reader with a fluorescein filter set. Background fluorescence (medium only) was subtracted from each well and percentage of adherent cells that is resistant to detachment under the conditions of washing the wells was calculated as fluorescence of well in percent of maximal fluorescence (without washing).

PDE4 [6] = conditions: cited from earlier work
PDE3 = conditions: read-out: Potency (IC50) PDE3; cited from earlier work
[7] = test system: peripheral blood mononuclear cells; conditions: cited from earlier work
T cells = conditions: cited from earlier work
[8] = Mus musculus, Splenocyte, 4 h, read-out: inhibition of CXCL12-induced migration

Compound: CCOC(=O)C1=C[C@]2(CC)CCCN3CCc4c(n1c1ccccc41)[C@@H]32 [Vinpocetine]
- IC50 (PDE1): 5000 to 25000 nM

Compound: CCCC(=O)Nc1ncnc2c1ncn2[C@@H]1O[C@@H]2COP(=O)(O)O[C@H]2[C@H]1OC(=O)CCC [dibutyryl cAMP]
- inhibition at 500 µM [1, 8]: 54%
- reduction of ICAM-1 mRNA expression (bEnd.3 endothelial cells): 42%
- increase of claudin-5 gene expression (bEnd.3 endothelial cells; 8-bromo-cAMP 500 μM): 70%
- reduction of CXCL12 gene expression (bEnd.3 endothelial cells; 8-bromo-cAMP 500 μM): 48%
- reduction of VCAM-1 gene expression (bEnd.3 endothelial cells; 8-bromo-cAMP 500 μM): 33%
- inhibition at 500 µM [2, 8]: 29%
- reduction of adhesion of activated T cells to bEnd.3 endothelial cells ([3]; 45 minute incubation, DP 100 μM, dibutryl cAMP 500 μM, adenosine deaminase 1 U/ml): 81%

Compound: CC1CC(=O)NN=C1c1cc(-n2ccnc2)cs1 (centres unmarked) [motapizone]
- effect on CXCL12-induced migration ([2]; Con A-stimulated splenocytes): no statistically significant effect; also recorded: not inhibited at all
- ability to reduce adhesion of activated T cells to endothelial cells ([3]; 45 minute incubation): no inhibitory effect

Compound: adenosine deaminase
- effect by itself on splenocyte migration ([2]; adenosine deaminase 1 U/ml, stimulated splenocytes): no effect
- reversal of the inhibitory effect of DP on T cell adhesion [3]: did not reverse

Compound: Nc1ncnc2c1ncn2[C@@H]1O[C@@H]2COP(O)(=S)O[C@H]2[C@H]1O (single isomer, unassigned) [Rp-cAMPS, 3′,5′-cyclic monophosphorothioate, Rp-isomer]
- reversal of dipyridamole inhibition of CXCL12-stimulated chemotaxis ([2]; Rp-cAMPS 1 mM with dipyridamole 100 μM): reversed; also recorded: reversal

Compound: COc1ccc(C(=O)Nc2c(Cl)cncc2Cl)cc1OC1CCCC1 [piclamilast]
- Ki (PDE4 [4]; purified PDE4): ~0.3 nM
- concentration margin before any other PDE gene family is inhibited (PDE4 [4]; relative to PDE4 inhibition): more than 5 orders of magnitude
- effect on adhesion of Con A-stimulated splenocytes to endothelial cells [5]: not inhibited at all
- effect on CXCL12-induced migration ([2]; Con A-stimulated splenocytes): no statistically significant effect; also recorded: not inhibited at all
- IC50 (PDE4 [6]; read-out: IC50, PDE4): 1 nM
- ability to reduce adhesion of activated T cells to endothelial cells ([3]; 45 minute incubation): no short term suppressive effect

Compound: C=C[C@@]1(C)CC(=O)[C@]2(O)[C@@]3(C)[C@@H](O)CCC(C)(C)[C@@H]3[C@H](O)[C@H](OC(C)=O)[C@@]2(C)O1 [forskolin]
- inhibition at 25 µM [1, 8]: 31%
- effect on CXCL12-induced migration ([2]; Con A-stimulated splenocytes): no effect at all

Compound: CXCL12: Recombinant mouse CXCL12, chemokine, chemoattractant for leukocytes
- increase in number of migrating splenocytes ([1]; unstimulated splenocytes, CXCL12 250 ng/ml in lower chamber, 4 hr): 6.2 fold
- effect on adhesion of Con A-stimulated splenocytes to endothelial cells [5]: did not increase
- increase in number of migrating splenocytes ([2]; Con A-stimulated splenocytes, CXCL12 250 ng/ml in lower chamber, 4 hr): 2.5 fold
- reversal of the inhibitory effect of DP on T cell adhesion [3]: did not reverse

Compound: CN(C(=O)CCCOc1ccc2[nH]c(=O)ccc2c1)C1CCCCC1 [Cilostamide]
- IC50 (PDE3): 5 nM

Compound: COc1ccc(C2CNC(=O)C2)cc1OC1CCCC1 (centres unmarked) [rolipram]
- lipopolysaccharide-stimulated release of TNF-α [7]: inhibit
- adhesion of T cells (T cells; 8-48 hour treatment): blocked
- adhesion to vascular ligands or endothelial cells (T cells; exposure for a short period of 4 hours): no effect
- T cell adhesion (T cells; until after 8 hours of exposure): did not significantly inhibit
